Results published in patent US20180153168A1, “A PRIMER FOR PESTICIDES” (PANGAEA AGROCHEMICALS LIMITED, priority 2015, published 2018).
Read-outs that look alike come from different tables or passages of the source.

Legend:
[1] = tested on: glyphosate resistant strain of Italian ryegrass; assay: Control of glyphosate resistant Italian ryegrass, piperonyl butoxide pre-treatment then glyphosate (Western Australia); assay type: in vivo; conditions: glyphosate without piperonyl butoxide; 8 replicated trials; FIG. 1
[2] = tested on: clodinafop resistant strains of blackgrass
Protocol: Further experiments were carried out using clodinafop resistant strains of blackgrass.
Daytime temperature of 11° C. Night time temperature of 8° C.

[3] = tested on: plant crop; conditions: optimised dose rate
Protocol: Preferably, the time delay is from 1 to 24 hours, preferably from 2 to 8 hours. However, the time delay required varies with temperature and dose rate. […] (these time delays assume an optimised dose rate).

[4] = tested on: pollen beetle; conditions: with insecticides
[5] = tested on: white fly; conditions: with insecticides
[6] = tested on: plants; conditions: applied alone, in the absence of any active ingredients; cited from earlier work
[7] = piperonyl butoxide 320 grams per ha then clodinafop 250 g ai/ha, daytime 11° C., night 8° C., FIG. 9

Row | Structure (SMILES) | level of control [1] | optimum delay ([2]; early autumn trials, ambient temperature of the order of 18° C.) [h] | delays showing high levels of control [2, 7] [h] | optimum delay for efficacy [2, 7] | optimum time delay ([3]; 11° C.) [h] | optimum time delay ([3]; 15° C.) [h] | optimum time delay ([3]; 25° C.) [h] | optimum delay for application [4] | optimum delay for application [5] [h] | toxicity to plants [6]
1 | O=C(O)CNCP(=O)(O)O [glyphosate] | minimal |  |  |  |  |  |  |  |  | 
2 | CCCCOCCOCCOCc1cc2c(cc1CCC)OCO2 [piperonyl butoxide] |  | 2 to 8 | 8 to 16 | approximately 8 hours | 8 | 4 | 2.5 | approximately 1 hour | ~8 | not detectable
